pKi: −log10 of the molar value.
Columns and labels:
human D2 receptor = target: T1, human D2 receptor (Homo sapiens, UniProt P14416); experiment: Radioligand binding to cloned human D2 receptor expressed in HEK-293 EBNA cells ([3H]-spiperone); conditions: HEK293 EBNA cell membranes, approximately 0.7 nM [3H]-spiperone, 1 h at RT
T1 construct: expressed in transfected cells; host or cells: HEK293 EBNA cells, transient transfection; membrane preparation

human D3 receptor = human D3 receptor (Homo sapiens, UniProt P35462); experiment: Radioligand binding to cloned human D3 receptor expressed in HEK-293 EBNA cells ([3H]-spiperone)
Protocol: (§1) HEK293 EBNA cells were transiently transfected with expression plasmids encoding for the human D2 or D3 or for the human 5-HT2A receptor, respectively. The cells were harvested 48 h post-transfection, washed three times with cold PBS and stored at −80° C. prior to use. The pellet was suspended in cold 50 mM Tris-HCl buffer comprising 10 mM EDTA (pH 7.4) and was homogenized with a Polytron (Kinematica A G, Basel, Switzerland) for 20-30 sec at 12.000 rpm. After centrifugation at 48.000×g for 30 min at 4° C., the pellet was resuspended in cold 10 mM Tris-HCl buffer comprising 0.1 mM EDTA (pH 7.4), homogenized, and centrifuged as above. This pellet was further resuspended in a smaller volume of ice cold 10 mM Tris-HCl buffer comprising 0.1 mM EDTA (pH 7.4) and homogenized with a Polytron for 20-30 sec at 12.000 rpm. The protein content of this homogenate was determined with the Bio-Rad (Bradford) Protein Assay (Biorad Laboratories GmbH, München, Germany) according to the instructions of the manufacturer using gamma globulin as the standard. This homogenate was stored at −80° C. in aliquots and thawed immediately prior to use.
(§2) Aliquots of membrane preparations were thawed at RT, resupended in assay buffer (D2, D3: 50 mM Tris-HCl, 120 mM NaCl, 5 mM MgCl2, 1 mM EDTA, 5 mM KCl, 1.5 mM CaCl2, pH=7.4; 5-HT2A: 50 mM Tris-HCl, 10 mM MgCl2, 1 mM EGTA, pH=7.4), homogenized with a Polytron for 20-30 sec at 12.000 rpm and adjusted to a final concentration of approximately 7.5 μg protein/well (D2, D3) and 15 μg protein/well (5-HT2A), respectively.
(§3) The binding affinity (Ki) of the compounds was determined using radioligand binding. Membranes were incubated in a total volume of 200 μl with a fixed concentration of radioligand (final concentration approximately 0.7 nM [^3H]-spiperone for D2, 0.5 nM [^3H]-spiperone for D3, and 1.1 nM [^3H]-ketanserin for 5-HT2A) and ten concentrations of test compound in ranging between 10 μM-0.1 nM for 1 h at RT. At the end of the incubation, the reaction mixtures were filtered on to unifilter 96-well white microplates with bonded GF/C filters (Packard BioScience, Zürich, Switzerland; preincubated for 1 h in 0.1% polyethylenimine (PEI) in assay buffer) with a Filtermate 196 harvester (Packard BioScience) and washed 3 times with cold assay buffer. The nonspecific binding was determined with equally composed reaction mixtures in the presence of 10 μM unlabelled spiperone. Per well 45 μl of Microscint 40 (Perkin Elmer, Schwerzenbach, Switzerland) was added, plates for sealed, shaken for 20 min and counted for 3 min on a Topcount Microplate Scintillation Counter (Can berra Packard S A, Zürich, Switzerland) with quenching correction.
(§4) The CPM value for each duplicate of a concentration of competing compound was averaged (y1), then the % specific binding was calculated according to the equation (((y1−non-specific)/(total binding−non-specific))×100). Graphs were plotted with the % specific binding using XLfit, a curve fitting program that iteratively plots the data using Levenberg-Marquardt algorithm. The single site competition analysis equation used was y=A+((B−A)/(1+((x/C)D))), where y is the % specific binding, A is the minimum y, B is the maximum y, C is the IC50, x is the log 10 of the concentration of the competing compound and D is the slope of the curve (the Hill Coefficient). […] The affinity constant (Ki) was calculated using the Cheng-Prusoff equation Ki=(IC50/1+([L]/Kd), where [L] is the concentration of radioligand and Kd is the dissociation constant of the radioligand at the receptor as determined by the saturation isotherm.

human 5-HT2A receptor = human 5-HT2A receptor (Homo sapiens, UniProt P28223); experiment: Radioligand binding to cloned human 5-HT2A receptor expressed in HEK-293 EBNA cells ([3H]-ketanserin)
Sequence of human 5-HT2A receptor (P28223 whole entry): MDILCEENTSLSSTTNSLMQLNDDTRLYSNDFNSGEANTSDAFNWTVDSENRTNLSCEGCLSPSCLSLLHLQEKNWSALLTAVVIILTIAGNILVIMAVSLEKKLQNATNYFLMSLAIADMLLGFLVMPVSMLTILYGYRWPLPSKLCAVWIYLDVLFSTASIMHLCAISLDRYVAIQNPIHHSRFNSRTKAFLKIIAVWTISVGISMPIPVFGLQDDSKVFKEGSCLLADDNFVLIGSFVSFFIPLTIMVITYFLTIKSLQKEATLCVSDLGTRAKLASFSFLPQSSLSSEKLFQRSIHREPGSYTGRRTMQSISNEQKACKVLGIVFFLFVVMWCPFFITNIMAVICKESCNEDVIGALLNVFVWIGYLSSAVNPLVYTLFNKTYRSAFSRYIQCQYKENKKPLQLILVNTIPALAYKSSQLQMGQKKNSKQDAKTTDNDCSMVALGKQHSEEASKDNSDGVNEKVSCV
Protocol: as §1, §2, §3, §4

T1 sequence (P14416 whole entry): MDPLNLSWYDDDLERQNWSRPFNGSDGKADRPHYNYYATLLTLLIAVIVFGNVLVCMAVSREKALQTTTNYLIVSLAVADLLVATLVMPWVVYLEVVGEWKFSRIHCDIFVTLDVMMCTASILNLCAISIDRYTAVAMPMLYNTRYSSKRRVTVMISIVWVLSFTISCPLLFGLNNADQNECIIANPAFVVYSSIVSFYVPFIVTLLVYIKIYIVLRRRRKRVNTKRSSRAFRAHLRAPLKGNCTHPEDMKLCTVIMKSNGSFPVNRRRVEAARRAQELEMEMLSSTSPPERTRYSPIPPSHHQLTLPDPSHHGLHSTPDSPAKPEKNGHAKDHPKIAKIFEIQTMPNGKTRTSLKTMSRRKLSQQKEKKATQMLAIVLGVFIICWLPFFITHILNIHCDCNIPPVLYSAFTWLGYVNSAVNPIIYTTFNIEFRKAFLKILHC
Sequence of human D3 receptor (P35462 whole entry): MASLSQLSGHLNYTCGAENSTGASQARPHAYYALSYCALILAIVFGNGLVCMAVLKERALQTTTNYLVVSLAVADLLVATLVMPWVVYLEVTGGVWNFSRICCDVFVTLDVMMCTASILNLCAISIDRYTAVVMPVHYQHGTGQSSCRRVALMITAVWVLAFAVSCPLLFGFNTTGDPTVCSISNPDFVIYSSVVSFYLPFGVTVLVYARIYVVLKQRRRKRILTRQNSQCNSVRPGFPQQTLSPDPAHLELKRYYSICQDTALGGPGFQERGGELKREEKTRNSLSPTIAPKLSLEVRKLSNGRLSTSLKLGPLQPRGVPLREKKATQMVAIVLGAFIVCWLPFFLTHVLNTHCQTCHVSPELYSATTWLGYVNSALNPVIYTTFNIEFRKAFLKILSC

Row | Compound | pKi (human D2 receptor) | melting point [°C] | pKi (human D3 receptor) | pKi (human 5-HT2A receptor) | D2 Ki (human D2 receptor)
1 | CO[C@H]1CC[C@H](CC(=O)N[C@H]2CC[C@H](CCN3CCN(c4nccc5c4OCC5)CC3)CC2)C1 [Example 52, trans-N-(4-{2-[4-(2,3-Dihydro-furo[2,3-c]pyridin-7-yl)-piperazin-1-yl]-ethyl}-cyclohexyl)-2-((1S,3S)-3-methoxy-cyclopentyl)-acetamide] | 6.02 | 199 | 7.87 | 7.36 | –
2 | CCC(=O)N[C@H]1CC[C@H](CCN2CCN(c3nccc4ccoc34)CC2)CC1 [Example 14, trans-N-{4-[2-(4-Furo[2,3-c]pyridin-7-yl-piperazin-1-yl)-ethyl]-cyclohexyl}-propionamide] | 6.30 | 187.5 | 8.45 | 8.02 | –
3 | O=C(N[C@H]1CC[C@H](CCN2CCN(c3nccc4c3OCC4)CC2)CC1)C1CCC1 [Example 23, Cyclobutanecarboxylic acid trans-(4-{2-[4-(2,3-dihydro-furo[2,3-c]pyridin-7-yl)-piperazin-1-yl]-ethyl}-cyclohexyl)-amide] | 6.56 | 186 | 8.23 | 7.52 | –
4 | CN(C)S(=O)(=O)N[C@H]1CC[C@H](CCN2CCN(c3nccc4c3OCC4)CC2)CC1 [Example 95, N′-(trans-4-{2-[4-(2,3-Dihydro-furo[2,3-c]pyridin-7-yl)-piperazin-1-yl]-ethyl}cyclohexyl)-N,N-dimethylsulfamide] | 6.19 | 128 | 7.97 | 7.51 | –
5 | O=C(N[C@H]1CC[C@H](CCN2CCN(c3nccc4c3OCC4)CC2)CC1)c1ccc(C(F)(F)F)cc1 [Example 55, trans-N-(4-{2-[4-(2,3-Dihydro-furo[2,3-c]pyridin-7-yl)-piperazin-1-yl]-ethyl}-cyclohexyl)-4-trifluoromethyl-benzamide] | – | 242.5 | 7.29 | 7.10 | inactive
6 | CC[C@H](O)CC(=O)N[C@H]1CC[C@H](CCN2CCN(c3nccc4c3OCC4)CC2)CC1 [Example 48, trans-(S)-3-Hydroxy-pentanoic acid (4-{2-[4-(2,3-dihydro-furo[2,3-c]pyridin-7-yl)-piperazin-1-yl]-ethyl}-cyclohexyl)-amide] | 5.96 | 217 | 7.74 | 7.25 | –
7 | C[C@]1(O)CC[C@H](C(=O)N[C@H]2CC[C@H](CCN3CCN(c4nccc5c4OCC5)CC3)CC2)CC1 [Example 91, trans-4-Hydroxy-4-methyl-cyclohexanecarboxylic acid trans-(4-{2-[4-(2,3-dihydro-furo[2,3-c]pyridin-7-yl)-piperazin-1-yl]-ethyl}-cyclohexyl)-amide] | 6.32 | 172.5 | 7.73 | 7.49 | –
8 | O=C(CC1CCC1)N[C@H]1CC[C@H](CCN2CCN(c3nccc4c3OCC4)CC2)CC1 [Example 25, trans-2-Cyclobutyl-N-(4-{2-[4-(2,3-dihydro-furo[2,3-c]pyridin-7-yl)-piperazin-1-yl]-ethyl}-cyclohexyl)-acetamide] | 6.27 | 147.5 | 8.24 | 7.43 | –
9 | CO[C@H]1CC[C@H](CC(=O)N[C@H]2CC[C@H](CCN3CCN(c4nccc5c4OCC5)CC3)CC2)CC1 [Example 92, trans-N-(4-{2-[4-(2,3-Dihydro-furo[2,3-c]pyridin-7-yl)-piperazin-1-yl]-ethyl}-cyclohexyl)-trans-2-(4-methoxy-cyclohexyl)-acetamide] | 5.76 | 188.5 | 7.91 | 7.27 | –
10 | O=C(CC1COCCO1)N[C@H]1CC[C@H](CCN2CCN(c3nccc4ccoc34)CC2)CC1 (mixture of isomers) [Example 15, trans-2-rac-[1,4]Dioxan-2-yl-N-{4-[2-(4-furo[2,3-c]pyridin-7-yl-piperazin-1-yl)-ethyl]-cyclohexyl}-acetamide] | 6.01 | 193 | 8.03 | 8.09 | –
11 | O=C(N[C@H]1CC[C@H](CCN2CCN(c3nccc4c3OCC4)CC2)CC1)c1ccc(N2CCCCC2)cc1 [Example 57, trans-N-(4-{2-[4-(2,3-Dihydro-furo[2,3-c]pyridin-7-yl)-piperazin-1-yl]-ethyl}-cyclohexyl)-4-piperidin-1-yl-benzamide] | 5.75 | 182.5 | 7.37 | 7.30 | –
12 | COCCC(=O)N[C@H]1CC[C@H](CCN2CCN(c3nccc4ccoc34)CC2)CC1 [Example 13, trans-N-{4-[2-(4-Furo[2,3-c]pyridin-7-yl-piperazin-1-yl)-ethyl]-cyclohexyl}-3-methoxy-propionamide] | 5.95 | 146 | 8.11 | 7.68 | –
13 | COCCC(=O)N[C@H]1CC[C@H](CCN2CCN(c3nccc4c3OCC4)CC2)CC1 [Example 9, trans-N-(4-{2-[4-(2,3-Dihydro-furo[2,3-c]pyridin-7-yl)-piperazin-1-yl]-ethyl}-cyclohexyl)-3-methoxy-propionamide] | 6.00 | 180 | 8.29 | 7.17 | –
14 | CC(C)(O)C(=O)N[C@H]1CC[C@H](CCN2CCN(c3nccc4c3OCC4)CC2)CC1 [Example 59, trans-N-(4-{2-[4-(2,3-Dihydro-furo[2,3-c]pyridin-7-yl)-piperazin-1-yl]-ethyl}-cyclohexyl)-2-hydroxy-2-methyl-propionamide] | 5.95 | 241 | 7.35 | 8.07 | –
15 | CS(=O)(=O)CC(=O)N[C@H]1CC[C@H](CCN2CCN(c3nccc4ccoc34)CC2)CC1 [Example 17, trans-N-{4-[2-(4-Furo[2,3-c]pyridin-7-yl-piperazin-1-yl)-ethyl]-cyclohexyl}-2-methanesulfonyl-acetamide] | 6.24 | 182 | 8.37 | 7.96 | –
16 | COCC(=O)N[C@H]1CC[C@H](CCN2CCN(c3nccc4c3OCC4)CC2)CC1 [Example 20, trans-N-(4-{2-[4-(2,3-Dihydro-furo[2,3-c]pyridin-7-yl)-piperazin-1-yl]-ethyl}-cyclohexyl)-2-methoxy-acetamide] | 5.89 | 126.5 | 7.89 | 7.48 | –
17 | CCCC(=O)N[C@H]1CC[C@H](CCN2CCN(c3nccc4c3OCC4)CC2)CC1 [Example 45, trans-N-(4-{2-[4-(2,3-Dihydro-furo[2,3-c]pyridin-7-yl)-piperazin-1-yl]-ethyl}-cyclohexyl)-butyramide] | 6.14 | 183 | 8.00 | 7.30 | –
18 | Cc1cc(C(=O)N[C@H]2CC[C@H](CCN3CCN(c4nccc5c4OCC5)CC3)CC2)on1 [Example 61, 3-Methyl-isoxazole-5-carboxylic acid trans-(4-{2-[4-(2,3-dihydro-furo[2,3-c]pyridin-7-yl)-piperazin-1-yl]-ethyl}-cyclohexyl)-amide] | 6.31 | 199 | 7.58 | 7.31 | –
19 | O=C(CC1CCOCC1)N[C@H]1CC[C@H](CCN2CCN(c3nccc4ccoc34)CC2)CC1 [Example 12, trans-N-{4-[2-(4-Furo[2,3-c]pyridin-7-yl-piperazin-1-yl)-ethyl]-cyclohexyl}-2-(tetrahydro-pyran-4-yl)-acetamide] | 5.94 | 213 | 7.83 | 7.66 | –
20 | CCCCC(=O)N[C@H]1CC[C@H](CCN2CCN(c3nccc4c3OCC4)CC2)CC1 [Example 51, Pentanoic acid trans-(4-{2-[4-(2,3-dihydro-furo[2,3-c]pyridin-7-yl)-piperazin-1-yl]-ethyl}-cyclohexyl)-amide] | 6.14 | 168 | 7.98 | 7.30 | –
21 | CC(C)CC(=O)N[C@H]1CC[C@H](CCN2CCN(c3nccc4c3OCC4)CC2)CC1 [Example 24, trans-N-(4-{2-[4-(2,3-Dihydro-furo[2,3-c]pyridin-7-yl)-piperazin-1-yl]-ethyl}-cyclohexyl)-3-methyl-butyramide] | 6.46 | 187 | 8.50 | 7.35 | –
22 | O=C(C[C@@H]1COCCO1)N[C@H]1CC[C@H](CCN2CCN(c3nccc4c3OCC4)CC2)CC1 [Example 35, trans-N-(4-{2-[4-(2,3-Dihydro-furo[2,3-c]pyridin-7-yl)-piperazin-1-yl]-ethyl}-cyclohexyl)-2-(R)-[1,4]dioxan-2-yl-acetamide] | 6.42 | 181 | 8.08 | 7.44 | –
23 | Cc1ccc(C(=O)N[C@H]2CC[C@H](CCN3CCN(c4nccc5c4OCC5)CC3)CC2)cn1 [Example 69, trans-N-(4-{2-[4-(2,3-Dihydro-furo[2,3-c]pyridin-7-yl)-piperazin-1-yl]-ethyl}-cyclohexyl)-6-methyl-nicotinamide] | 6.22 | 204 | 7.76 | 7.60 | –
24 | O=C(N[C@H]1CC[C@H](CCN2CCN(c3nccc4c3OCC4)CC2)CC1)c1ccccc1 [Example 22, trans-N-(4-{2-[4-(2,3-Dihydro-furo[2,3-c]pyridin-7-yl)-piperazin-1-yl]-ethyl}-cyclohexyl)-benzamide] | 6.61 | 221 | 8.48 | 7.83 | –
25 | C/C=C/CC(=O)N[C@H]1CC[C@H](CCN2CCN(c3nccc4c3OCC4)CC2)CC1 [Example 87, (E)-Pent-3-enoic acid trans-(4-{2-[4-(2,3-dihydro-furo[2,3-c]pyridin-7-yl)-piperazin-1-yl]-ethyl}-cyclohexyl)-amide] | 6.03 | 170 | 8.18 | 7.13 | –

Reference: patent US8470828B2, “Anellated pyridine compounds” (Hoffmann-La Roche Inc., priority 2010, dated 2013)
